Measured values taken from patent publication US10010539B2, “Pyrazole, triazole and tetrazole orexin receptor antagonists” (MERCK SHARP & DOHME CORP., priority 2014, dated 2018).
pIC50: −log10 of the molar value.

Tests used:
human orexin-2 receptor = human orexin-2 receptor (Homo sapiens (Human), UniProt O43614); experiment: FLIPR Ca2+ Flux Assay, orexin-2 receptor (hOX2R FLIPR); type: cell-based; settings: CHO cells expressing the human orexin-2 receptor; agonist 70 pM Ala-6,12 human orexin-A
Procedure: (§1) The utility of the compounds in accordance with the present invention as orexin receptor OX1R and/or OX2R antagonists may be readily determined without undue experimentation by methodology well known in the art, including the “FLIPR Ca^2+ Flux Assay” (Okumura et al., Biochem. Biophys. Res. Comm. 280:976-981, 2001). In a typical experiment the OX1 and OX2 receptor antagonistic activity of the compounds of the present invention was determined in accordance with the following experimental method. For intracellular calcium measurements, Chinese hamster ovary (CHO) cells expressing the rat orexin-1 receptor or the human orexin-2 receptor, are grown in Iscove's modified DMEM containing 2 mM L-glutamine, […], 1% hypoxanthine-thymidine supplement, 100 U/ml penicillin, 100 μg/ml streptomycin and 10% heat-inactivated fetal calf serum (FCS). The cells are seeded at 20,000 cells/well into Becton-Dickinson black 384-well clear bottom sterile plates coated with poly-D-lysine. All reagents were from GIBCO-Invitrogen Corp. The seeded plates are incubated overnight at 37° C. and 5% CO2. Ala-6,12 human orexin-A as the agonist is prepared as a 1 mM stock solution in 1% bovine serum albumin (BSA) and diluted in assay buffer (HBSS containing 20 mM HEPES, 0.1% BSA and 2.5 mM probenecid, pH7.4) for use in the assay at a final concentration of 70 pM. Test compounds are prepared as 10 mM stock solution in DMSO, then diluted in 384-well plates, first in DMSO, then assay buffer. On the day of the assay, cells are washed 3 times with 100 μl assay buffer and then incubated for 60 min (37° C., 5% CO2) in 60 μl assay buffer containing 1 μM Fluo-4AM ester, 0.02% pluronic acid, and 1% BSA. The dye loading solution is then aspirated and cells are washed 3 times with 100 μl assay buffer. 30 μl of that same buffer is left in each well. Within the Fluorescent Imaging Plate Reader (FLIPR, Molecular Devices), test compounds are added to the plate in a volume of 25 μl, incubated for 5 min and finally 25 μl of agonist is added. Fluorescence is measured for each well at 1 second intervals for 5 minutes and the height of each fluorescence peak is compared to the height of the fluorescence peak induced by 70 pM Ala-6,12 orexin-A with buffer in place of antagonist. For each antagonist, IC50 value (the concentration of compound needed to inhibit 50% of the agonist response) is determined. Alternatively, compound potency can be assessed by a radioligand binding assay (described in Bergman et. al. Bioorg. Med. Chem. Lett. 2008, 18, 1425-1430) in which the inhibition constant (Ki) is determined in membranes prepared from CHO cells expressing either the OX1 or OX2 receptor. The intrinsic orexin receptor antagonist activity of a compound which may be used in the present invention may be determined by these assays.

[1] = biological target: hOXIR (orexin-1 receptor) (Homo sapiens, UniProt O43613); experiment: FLIPR Ca2+ Flux Assay, orexin-1 receptor (hOXIR FLIPR); type: cell-based; settings: CHO cells expressing the orexin-1 receptor (method text: rat; table head: hOXIR); agonist 70 pM Ala-6,12 human orexin-A
Procedure: as §1

Sequence of human orexin-2 receptor (O43614 whole entry): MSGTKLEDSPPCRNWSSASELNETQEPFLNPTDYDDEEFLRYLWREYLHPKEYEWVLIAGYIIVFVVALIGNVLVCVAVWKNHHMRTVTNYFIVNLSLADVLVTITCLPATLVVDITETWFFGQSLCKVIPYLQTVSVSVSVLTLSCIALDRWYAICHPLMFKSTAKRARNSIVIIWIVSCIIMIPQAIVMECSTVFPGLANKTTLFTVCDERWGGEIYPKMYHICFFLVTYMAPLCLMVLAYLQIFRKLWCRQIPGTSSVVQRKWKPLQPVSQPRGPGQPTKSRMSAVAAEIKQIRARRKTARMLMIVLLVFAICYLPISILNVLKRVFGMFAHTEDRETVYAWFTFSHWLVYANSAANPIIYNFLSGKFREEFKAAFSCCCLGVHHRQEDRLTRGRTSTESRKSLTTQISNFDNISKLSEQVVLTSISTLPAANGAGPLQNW

SMILES	pIC50 (human orexin-2 receptor)	pIC50 [1]
COc1ccc(C(=O)N2C[C@H](n3ncc(C(C)(C)O)n3)CC[C@H]2C)c(-n2nccn2)n1 [Example 45, 2-{2-[(3R,6R)-1-{[6-methoxy-2-(2H-1,2,3-triazol-2-yl)pyridin-3-yl]carbonyl}-6-methylpiperidin-3-yl]-2H-1,2,3-triazol-4-yl}propan-2-ol]	7.29	< 5.00
C[C@@H]1CC[C@@H](n2cc(C(C)(C)O)cn2)CN1C(=O)c1cccnc1OCC(F)F [Example 98, 2-{1-[(3R,6R)-1-{[2-(2,2-Difluoroethoxy)pyridin-3-yl]carbonyl}-6-methylpiperidin-3-yl]-1H-pyrazol-4-yl}propan-2-ol]	7.23	< 5.00
COCCc1ccccc1C(=O)N1C[C@H](n2ncc(C(C)(C)O)n2)CC[C@H]1C [Example 44, 2-{2-[(3R,6R)-1-{[2-(2-methoxyethyl)phenyl]carbonyl}-6-methylpiperidin-3-yl]-2H-1,2,3-triazol-4-yl}propan-2-ol]	6.05	< 5.00
C[C@@H]1CC[C@@H](n2cc([C@](C)(O)C(F)(F)F)cn2)CN1C(=O)c1ccccc1-n1nccn1 [Example 106, (2S)-1,1,1-Trifluoro-2-{1-[(3R,6R)-6-methyl-1-{[2-(2H-1,2,3-triazol-2-yl)phenyl]carbonyl}piperidin-3-yl]-1H-pyrazol-4-yl}propan-2-ol]	7.97	5.69
C[C@@H]1CC[C@@H](n2ncc(C(C)(C)O)n2)CN1C(=O)c1ccccc1C1CC1 [Example 6, (2-Cyclopropylphenyl)((2R,5R)-5-(4-(2-hydroxypropan-2-yl)-2H-1,2,3-triazol-2-yl)-2-methylpiperidin-1-yl)methanone]	7.83	5.61
C[C@@H]1CC[C@@H](n2cc(C(C)(C)O)cn2)CN1C(=O)c1ccccc1C1CCC1 [Example 87, 2-(1-{(3R,6R)-1-[(2-Cyclobutylphenyl)carbonyl]-6-methylpiperidin-3-yl}-1H-pyrazol-4-yl)propan-2-ol]	7.31	5.48
C[C@@H]1CC[C@@H](n2cc(C(C)(C)O)cn2)CN1C(=O)c1ccccc1[C@@H]1CC1(F)F [Example 85, 2-{1-[(3R,6R)-1-({2-[(1S)-2,2-Difluorocyclopropyl]phenyl}carbonyl)-6-methylpiperidin-3-yl]-1H-pyrazol-4-yl}propan-2-ol]	8.03	5.58
C[C@@H]1CC[C@@H](n2ncc(C(C)(C)O)n2)CN1C(=O)c1nccnc1-c1ccccn1 [Example 42, 2-(2-{(3R,6R)-6-methyl-1-[(3-pyridin-2-ylpyrazin-2-yl)carbonyl]piperidin-3-yl}-2H-1,2,3-triazol-4-yl)propan-2-ol]	6.21	< 5.00
COC(=O)c1ncccc1C(=O)N1C[C@H](n2ncc(C(C)(C)O)n2)CC[C@H]1C [Example 8, Methyl 3-((2R,5R)-5-(4-(2-hy-droxypropan-2-yl)-2H-1,2,3-triazol-2-yl)-2-methylpiperidine-1-carbonyl)picolinate]	5.75	< 5.00
C[C@@H]1CC[C@@H](n2cc(C(C)(C)O)cn2)CN1C(=O)c1ccccc1C1CC1 [Example 78, 2-(1-{(3R,6R)-1-[(2-Cyclopropylphenyl)carbonyl]-6-methylpiperidin-3-yl}-1H-pyrazol-4-yl)propan-2-ol]	7.59	< 5.00
CC(C)c1ccccc1C(=O)N1C[C@H](n2ncc(C(C)(C)O)n2)CC[C@H]1C [Example 5, ((2R,5R)-5-(4-(2-Hydroxypropan-2-yl)-2H-1,2,3-triazol-2-yl)-2-methylpiperidin-1-yl)(2-isopropylphenyl)methanone]	7.15	< 5.00
C[C@@H]1CC[C@@H](n2ncc(C(C)(C)O)n2)CN1C(=O)c1ccccc1OCC(F)(F)F [Example 16, ((2R,5R)-5-(4-(2-Hydroxypropan-2-yl)-2H-1,2,3-triazol-2-yl)-2-methylpiperidin-1-yl)(2-(2,2,2-trifluoroethoxy)phenyl)methanone]	7.64	< 5.00
